According to patent US3959363A, “15-Ethynyl-PFG2β” (American Home Products Corporation, priority 1974, dated 1976):

Key:
[1] = tested on: bronchoconstricting effects of a standard dose of acetylcholine; assay: Bronchodilation upon aerosol inhalation in the guinea pig (method of Rosenthale et al.): inhibition of acetylcholine bronchoconstriction; type: in vivo
Description: In using the compounds of the invention to produce bronchodilating effects in warm-blooded animals, they may be administered in a variety of dosage forms: oral, injectable, and aerosol inhalation. Aerosol inhalation is a preferred method because of its rapid onset of action, great potency, and specificity of action. The particular dosage to obtain the bronchodilating effect will vary with the particular compound employed, the particular animal involved, and the degree of bronchodilation desired. In the guinea pig, by aerosol inhalation, the dose to produce bronchodilation is from about 0.015 micrograms to about 50 micrograms, and preferably from about 0.015 to about 25 micrograms. The bronchodilation produced upon aerosol inhalation can be observed by the method of Rosenthale et al., J. Pharmacol. Exp. Ther., 178, 541 (1971). Using this procedure the following result was obtained.

[2] = Hypotensive effect in the anesthetized dog, intravenous route; type: in vivo; conditions: dose 100 μg/kg
Description: In the use of the compounds of the invention to produce hypotensive effects in warm-blooded animals, administration by the injectable route is preferred, preferably the intravenous route.
Thus in the anesthetized dog by the intravenous route the dose to produce hypotension is from about 1 μg/kg. to about 200 μg/kg. and preferably from about 10 μg/kg. to about 100 μg/kg. Using this procedure the following results were obtained.

## C#C[C@@](O)(/C=C/[C@@H]1[C@@H](C/C=C\CCCC(=O)O)[C@H](O)C[C@H]1O)CCCCC [7-(2β-[(3S)-3-Ethynyl-3-Hydroxy-Trans-1-Octenyl]-3α,5β-Dihydroxy-1α-cyclopentyl)-Cis-5-Heptenoic Acid]
[1]; dose 1.5 μg
  Percent Inhibition of the bronchoconstricting effects of a standard dose of acetylcholine: 64%
[1]; dose 15 μg
  Percent Inhibition of the bronchoconstricting effects of a standard dose of acetylcholine: 78%
[2]
  Δb.p.: -16 mm. Hg
